According to patent US20250353864A1, “INDAZOLE CONTAINING MACROCYCLES AND THEIR USE” (BLOSSOMHILL THERAPEUTICS, INC., priority 2022, published 2025):
pIC50: −log10 of the molar value.

How the values were obtained:
Type in all cases: biochemical
[1] = target: ALK (Homo sapiens (Human), UniProt Q9UM73); test: HotSpot radiometric kinase assay, inhibition of ALK kinase activity; conditions: 10 μM ATP
Method: Briefly, specific kinase/substrate pairs along with required cofactors were prepared in reaction buffer; 20 mM Hepes pH 7.5, 10 mM […], 1 mM EGTA, 0.02% Brij35, 0.02 mg/ml BSA, 0.1 mM Na3VO4, 2 mM DTT, 1% DMSO. Compounds were delivered into the reaction, followed […] later by addition of a mixture of ATP (Sigma, St. Louis MO) and ^33P ATP (Perkin Elmer, Waltham MA) to a final concentration of 10 μM. Reactions were carried out at room temperature for 120 min, followed by spotting of the reactions onto P81 ion exchange filter paper (Whatman Inc., Piscataway, NJ). Unbound phosphate was removed by extensive washing of filters in 0.75% phosphoric acid. […] IC50 values and curve fits were obtained using Prism (GraphPad Software).

[2] = target: CLK1 (Homo sapiens (Human), UniProt P49759); test: Inhibition of CLK1 kinase activity evaluated at Nanosyn (ADP-Glo); conditions: ADP-Glo luminescence
Outline: (§1)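 ADP-Glo luminescence read-out of ADP produced by each kinase acting on substrate, with ATP added to start the reaction. Buffer: 100 mM HEPES pH 7.5, 5 mM MgCl2, Triton X-100, BSA, DTT, phosphatase inhibitors; DMSO 1%. Inhibition calculated against no-inhibitor and no-enzyme controls.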

[3] = target: CLK2 (Homo sapiens (Human), UniProt P49760); test: Inhibition of CLK2 kinase activity evaluated at Nanosyn (ADP-Glo); conditions: ADP-Glo luminescence
Outline: as §1

[4] = target: CLK3 (Homo sapiens (Human), UniProt P49761); test: Inhibition of CLK3 kinase activity evaluated at Nanosyn (ADP-Glo); conditions: ADP-Glo luminescence
Outline: as §1

[5] = target: CLK4 (Homo sapiens (Human), UniProt Q9HAZ1); test: Inhibition of CLK4 kinase activity evaluated at Nanosyn (ADP-Glo); conditions: ADP-Glo luminescence
Outline: as §1

[6] = target: EGFR WT (Homo sapiens (Human), UniProt P00533); test: HotSpot radiometric kinase assay (Reaction Biology), EGFR WT; conditions: 10 μM ATP
Outline: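 Enzyme and substrate pairs were exposed to inhibitor for roughly 20 min before radiolabelled ATP (10 μM final) was introduced; the reaction proceeded 120 min at ambient temperature in pH 7.5 buffer with 1% DMSO, and phosphorylated product was captured on P81 filters for IC50 determination.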

[7] = target: EGFR (D770_N771insNPG) (Homo sapiens (Human), UniProt P00533, INS770NPG); test: HotSpot radiometric kinase assay, EGFR (D770_N771insNPG); conditions: 10 μM ATP, read-out: EGFR (Δ770_N771insNPG) IC50
Outline: (§2)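 10 μM ATP (33P-labelled, final); 120 min RT; P81 filter capture, 0.75% phosphoric acid washes. Cpd preincubated ~20 min with enzyme/substrate, 20 mM Hepes pH 7.5, 10 mM MgCl2, 1% DMSO. IC50 by curve fit.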

[8] = target: EGFR Δ746-750 mutant (Homo sapiens (Human), UniProt P00533, DEL746-750); test: HotSpot radiometric kinase assay, EGFR Δ746-750 mutant; conditions: 10 μM ATP
Outline: as §2

[9] = target: EGFR Δ746-750/C797S mutant (Homo sapiens (Human), UniProt P00533, C797S/DEL746-750); test: HotSpot radiometric kinase assay, EGFR Δ746-750/C797S mutant; conditions: 10 μM ATP
Outline: as §2

[10] = target: EGFR L858R mutant (Homo sapiens (Human), UniProt P00533, L858R); test: HotSpot radiometric kinase assay, EGFR L858R mutant; conditions: 10 μM ATP
Outline: as §2

[11] = target: EGFR L858R/T790M/C797S mutant (Homo sapiens (Human), UniProt P00533, C797S/L858R/T790M); test: HotSpot radiometric kinase assay, EGFR L858R/T790M/C797S mutant; conditions: 10 μM ATP
Outline: as §2

[12] = target: EGFR L858R/T790M mutant (Homo sapiens (Human), UniProt P00533, L858R/T790M); test: HotSpot radiometric kinase assay, EGFR L858R/T790M mutant; conditions: 10 μM ATP
Outline: as §2

Sequence of CLK3 (P49761 whole entry): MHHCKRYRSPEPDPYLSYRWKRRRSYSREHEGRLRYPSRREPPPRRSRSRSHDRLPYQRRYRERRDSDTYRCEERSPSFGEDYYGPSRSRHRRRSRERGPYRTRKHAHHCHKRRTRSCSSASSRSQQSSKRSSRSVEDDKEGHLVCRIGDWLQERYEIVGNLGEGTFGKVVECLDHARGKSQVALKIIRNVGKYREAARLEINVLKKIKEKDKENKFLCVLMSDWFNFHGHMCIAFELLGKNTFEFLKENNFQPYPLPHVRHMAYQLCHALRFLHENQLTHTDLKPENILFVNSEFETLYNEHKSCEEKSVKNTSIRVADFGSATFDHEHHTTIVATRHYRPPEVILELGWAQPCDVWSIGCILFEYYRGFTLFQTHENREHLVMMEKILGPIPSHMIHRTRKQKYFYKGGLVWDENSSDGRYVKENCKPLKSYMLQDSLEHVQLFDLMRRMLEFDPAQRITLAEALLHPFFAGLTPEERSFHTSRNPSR
Sequence of CLK2 (P49760 whole entry): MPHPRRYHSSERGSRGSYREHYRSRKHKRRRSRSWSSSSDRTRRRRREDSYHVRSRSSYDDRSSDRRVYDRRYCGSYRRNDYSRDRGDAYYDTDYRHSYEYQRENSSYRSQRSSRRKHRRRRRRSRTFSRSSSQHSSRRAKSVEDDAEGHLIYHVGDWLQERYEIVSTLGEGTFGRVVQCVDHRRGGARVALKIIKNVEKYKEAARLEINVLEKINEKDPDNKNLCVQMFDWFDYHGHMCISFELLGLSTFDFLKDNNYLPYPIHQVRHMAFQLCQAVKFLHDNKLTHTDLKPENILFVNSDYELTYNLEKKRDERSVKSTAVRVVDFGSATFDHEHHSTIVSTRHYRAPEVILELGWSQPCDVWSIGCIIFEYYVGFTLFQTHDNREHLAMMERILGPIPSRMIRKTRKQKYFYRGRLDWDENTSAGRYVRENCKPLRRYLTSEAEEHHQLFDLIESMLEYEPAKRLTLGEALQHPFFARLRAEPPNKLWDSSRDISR
Sequence of EGFR Δ746-750/C797S mutant (P00533 other isoform, or with tags, fused parts or gaps C797S/del 1-668/del 746-750 limits assumed): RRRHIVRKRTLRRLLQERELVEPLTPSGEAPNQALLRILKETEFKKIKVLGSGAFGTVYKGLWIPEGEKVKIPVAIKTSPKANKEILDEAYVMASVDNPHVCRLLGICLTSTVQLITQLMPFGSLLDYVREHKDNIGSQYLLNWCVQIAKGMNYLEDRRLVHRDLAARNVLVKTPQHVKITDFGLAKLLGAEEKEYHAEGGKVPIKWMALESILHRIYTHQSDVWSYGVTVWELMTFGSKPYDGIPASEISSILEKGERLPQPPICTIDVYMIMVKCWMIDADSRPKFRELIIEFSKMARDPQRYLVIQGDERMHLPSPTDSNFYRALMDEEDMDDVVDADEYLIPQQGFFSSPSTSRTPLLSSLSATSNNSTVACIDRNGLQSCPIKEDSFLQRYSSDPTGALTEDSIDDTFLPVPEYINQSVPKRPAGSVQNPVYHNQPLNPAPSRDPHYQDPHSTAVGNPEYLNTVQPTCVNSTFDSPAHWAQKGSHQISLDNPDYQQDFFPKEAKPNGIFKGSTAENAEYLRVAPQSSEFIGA
Sequence of CLK4 (Q9HAZ1 whole entry): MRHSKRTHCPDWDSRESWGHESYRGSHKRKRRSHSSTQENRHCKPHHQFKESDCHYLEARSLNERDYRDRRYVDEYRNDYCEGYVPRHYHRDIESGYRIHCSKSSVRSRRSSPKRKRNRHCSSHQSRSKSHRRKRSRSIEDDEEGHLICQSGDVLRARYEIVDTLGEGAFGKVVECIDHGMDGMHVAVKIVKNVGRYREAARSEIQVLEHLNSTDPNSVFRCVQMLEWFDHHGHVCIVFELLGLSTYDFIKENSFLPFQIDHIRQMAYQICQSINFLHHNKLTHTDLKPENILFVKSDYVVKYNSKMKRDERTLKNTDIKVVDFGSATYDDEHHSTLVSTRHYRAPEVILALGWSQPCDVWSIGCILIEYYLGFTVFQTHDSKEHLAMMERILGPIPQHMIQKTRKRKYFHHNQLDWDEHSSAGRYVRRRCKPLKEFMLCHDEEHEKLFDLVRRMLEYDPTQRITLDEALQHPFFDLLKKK
Sequence of ALK (Q9UM73 19-1620): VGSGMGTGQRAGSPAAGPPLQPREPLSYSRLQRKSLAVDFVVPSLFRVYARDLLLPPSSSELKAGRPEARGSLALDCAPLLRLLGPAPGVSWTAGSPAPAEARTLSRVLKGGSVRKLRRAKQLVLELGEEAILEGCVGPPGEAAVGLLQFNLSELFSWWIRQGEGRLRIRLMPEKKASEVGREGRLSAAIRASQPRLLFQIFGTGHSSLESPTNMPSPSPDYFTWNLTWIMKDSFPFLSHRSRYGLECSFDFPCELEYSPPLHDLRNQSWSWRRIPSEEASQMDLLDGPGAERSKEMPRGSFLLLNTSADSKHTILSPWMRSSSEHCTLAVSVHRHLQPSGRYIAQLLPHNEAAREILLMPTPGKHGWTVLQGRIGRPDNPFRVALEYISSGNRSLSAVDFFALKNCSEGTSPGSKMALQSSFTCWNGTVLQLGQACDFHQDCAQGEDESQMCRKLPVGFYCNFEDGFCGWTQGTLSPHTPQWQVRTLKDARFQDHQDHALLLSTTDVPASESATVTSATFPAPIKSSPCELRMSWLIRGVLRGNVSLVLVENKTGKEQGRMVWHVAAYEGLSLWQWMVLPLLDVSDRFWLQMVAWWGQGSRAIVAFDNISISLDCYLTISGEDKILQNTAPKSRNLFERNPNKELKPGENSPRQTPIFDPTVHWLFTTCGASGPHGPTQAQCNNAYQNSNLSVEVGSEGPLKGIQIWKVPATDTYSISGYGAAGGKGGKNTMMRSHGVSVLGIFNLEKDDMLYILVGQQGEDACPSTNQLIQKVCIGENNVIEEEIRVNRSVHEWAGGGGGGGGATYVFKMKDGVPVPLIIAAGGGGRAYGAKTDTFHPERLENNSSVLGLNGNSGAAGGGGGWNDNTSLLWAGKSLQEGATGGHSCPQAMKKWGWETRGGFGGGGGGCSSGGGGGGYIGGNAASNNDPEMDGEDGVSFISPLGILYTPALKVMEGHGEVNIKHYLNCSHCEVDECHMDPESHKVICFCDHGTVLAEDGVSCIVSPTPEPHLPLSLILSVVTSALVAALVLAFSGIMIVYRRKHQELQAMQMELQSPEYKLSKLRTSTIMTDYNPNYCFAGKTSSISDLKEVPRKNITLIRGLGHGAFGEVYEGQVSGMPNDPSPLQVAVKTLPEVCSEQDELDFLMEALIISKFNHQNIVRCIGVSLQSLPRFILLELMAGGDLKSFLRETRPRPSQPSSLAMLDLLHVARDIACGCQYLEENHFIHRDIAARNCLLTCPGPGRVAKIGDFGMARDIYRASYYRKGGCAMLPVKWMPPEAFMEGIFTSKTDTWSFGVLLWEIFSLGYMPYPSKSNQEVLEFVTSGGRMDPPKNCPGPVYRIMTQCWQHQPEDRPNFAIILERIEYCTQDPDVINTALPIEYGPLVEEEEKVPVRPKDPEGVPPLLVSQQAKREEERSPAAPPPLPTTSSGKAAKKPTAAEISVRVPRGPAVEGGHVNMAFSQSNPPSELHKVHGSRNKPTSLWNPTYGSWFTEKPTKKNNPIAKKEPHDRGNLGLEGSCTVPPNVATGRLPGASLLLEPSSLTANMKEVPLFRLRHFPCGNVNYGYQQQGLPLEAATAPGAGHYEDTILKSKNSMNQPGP
Sequence of CLK1 (P49759 whole entry): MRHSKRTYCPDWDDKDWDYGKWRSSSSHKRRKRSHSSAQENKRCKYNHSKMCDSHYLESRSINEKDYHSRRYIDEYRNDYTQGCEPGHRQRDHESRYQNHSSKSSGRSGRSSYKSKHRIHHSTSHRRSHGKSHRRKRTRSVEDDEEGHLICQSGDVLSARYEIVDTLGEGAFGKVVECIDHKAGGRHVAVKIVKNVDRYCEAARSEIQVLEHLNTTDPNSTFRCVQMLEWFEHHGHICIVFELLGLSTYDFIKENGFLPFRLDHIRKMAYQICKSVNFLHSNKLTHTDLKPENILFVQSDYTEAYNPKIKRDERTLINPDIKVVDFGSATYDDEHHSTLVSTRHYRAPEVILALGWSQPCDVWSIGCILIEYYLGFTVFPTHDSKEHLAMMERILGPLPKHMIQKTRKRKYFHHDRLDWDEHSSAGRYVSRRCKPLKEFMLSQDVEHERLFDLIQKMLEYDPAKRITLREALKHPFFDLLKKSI
Sequence of EGFR Δ746-750 mutant (P00533 other isoform, or with tags, fused parts or gaps del 1-668/del 746-750 limits assumed): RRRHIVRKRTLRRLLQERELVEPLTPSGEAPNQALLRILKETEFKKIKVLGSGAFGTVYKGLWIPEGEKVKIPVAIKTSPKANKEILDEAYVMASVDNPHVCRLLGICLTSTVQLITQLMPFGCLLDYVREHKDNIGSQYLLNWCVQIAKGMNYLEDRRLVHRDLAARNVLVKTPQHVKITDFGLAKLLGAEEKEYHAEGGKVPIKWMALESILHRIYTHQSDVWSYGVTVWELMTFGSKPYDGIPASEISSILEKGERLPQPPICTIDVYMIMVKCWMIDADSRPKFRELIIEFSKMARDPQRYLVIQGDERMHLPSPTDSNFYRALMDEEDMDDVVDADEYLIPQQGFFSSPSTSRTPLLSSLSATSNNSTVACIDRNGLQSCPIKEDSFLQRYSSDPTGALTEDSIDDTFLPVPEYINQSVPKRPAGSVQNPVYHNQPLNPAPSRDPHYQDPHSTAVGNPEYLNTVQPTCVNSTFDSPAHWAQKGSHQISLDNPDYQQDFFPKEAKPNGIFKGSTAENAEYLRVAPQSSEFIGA

Row | Structure (SMILES) | pIC50 [1] | pIC50 [2] | pIC50 [3] | pIC50 [4] | pIC50 [5] | pIC50 [6] | pIC50 [7] | pIC50 [8] | pIC50 [9] | pIC50 [10] | pIC50 [11] | pIC50 [12]
1 | CC(C)Oc1nn(CCO)c2c1/C=C/c1n[nH]c3ccc(cc13)-c1cnn(C)c1O[C@@H](C(F)F)CN(C)C2 (single isomer, unassigned) [Ex. 275] | 8.84 | 9.10 | 8.99 | 6.62 | 8.65 | – | – | – | – | – | – | –
2 | CCN1Cc2c(c(OC(C)C)nn2C[C@H](C)O)/C=C/c2n[nH]c3ccc(cc23)-c2cnn(C)c2O[C@@H](C)C1 [Ex. 280, (2S)-1-{(10S,17E)-12-ethyl-8,10-dimethyl-16-[(propan-2-yl)oxy]-2,8,10,11,12,13-hexahydro-14H-3,5-ethenotripyrazolo[3,4-f:3′,4′-j:4″,3″-n][1,4]oxazacyclopentadecin-14-yl}propan-2-ol] | 8.97 | 9.28 | 9.62 | 6.62 | 8.71 | – | – | – | – | – | – | –
3 | CCOc1nn(CCO)c2c1/C=C/c1n[nH]c3cc(F)c(cc13)-c1cnn(C)c1O[C@H](C)CN(CC)C2 [Ex. 277, 2-[(10R,17E)-16-ethoxy-12-ethyl-19-fluoro-8,10-dimethyl-2,8,10,11,12,13-hexahydro-14H-3,5-ethenotripyrazolo[3,4-f:3′,4′-j:4″,3″-n][1,4]oxazacyclopentadecin-14-yl]ethan-1-ol] | 8.01 | 8.37 | 8.52 | 7.29 | 8.56 | – | – | – | – | – | – | –
4 | Cc1c2c(nn1C)CN(C)C[C@H](C)Oc1c(cnn1C)-c1ccc3[nH]nc(c3c1)/C=C/2 [Example 58, (10S,17E)-8,10,12,15,16-pentamethyl-2,10,11,12,13,15-hexahydro-8H-3,5-ethenotripyrazolo[3,4-f:3′,4′-j:4″,3″- n][1,4]oxazacyclopentadecine] | 8.32 | 9.70 | 9.42 | 6.80 | 9.28 | 7.31 | 6.65 | 7.95 | 8.14 | 8.03 | 8.80 | –
5 | CC(C)Oc1nn(CCO)c2c1/C=C/c1n[nH]c3cc(F)c(cc13)-c1cnn(C)c1O[C@@H](C)[C@H]1CCCN1C2 (single isomer, unassigned) [Example 256] | 8.70 | 8.86 | 8.87 | 7.02 | 8.39 | – | – | – | – | – | – | –
6 | CCOc1nn(CCO)c2c1/C=C/c1n[nH]c3cc(F)c(cc13)-c1cnn(C)c1O[C@@H](C)CN(CC)C2 [Example 288, 2-[(10S,17E)-16-ethoxy-12-ethyl-19-fluoro-8,10-dimethyl-2,8,10,11,12,13-hexahydro-14H-3,5-ethenotripyrazolo[3,4-f:3′,4′-j:4″,3″- n][1,4]oxazacyclopentadecin-14-yl]ethan-1-ol] | 8.74 | 9.49 | 9.62 | 6.88 | 8.88 | – | – | – | – | – | – | –
7 | CCN1Cc2c(c(OC)nn2[C@@H](C)CO)/C=C/c2n[nH]c3cc(F)c(cc23)-c2cnn(C)c2O[C@H](C)C1 [Example 289, (2S)-2-[(10R,17E)-12-ethyl-19-fluoro-16-methoxy-8,10-dimethyl-2,8,10,11,12,13-hexahydro-14H-3,5-ethenotripyrazolo[3,4-f:3′,4′-j:4″,3″-n][1,4]oxazacyclopentadecin-14-yl]propan-1-ol] | 7.81 | – | – | – | – | – | – | – | – | – | – | –

Now from value to compound:

Row | pIC50 [1] | pIC50 [2] | pIC50 [3] | pIC50 [4] | pIC50 [5] | pIC50 [6] | pIC50 [7] | pIC50 [8] | pIC50 [9] | pIC50 [10] | pIC50 [11] | pIC50 [12] | Structure (SMILES)
8 | 7.22 | 8.98 | 7.46 | 9.49 | 9.20 | – | – | – | – | – | – | – | Cc1snc2c1/C=C/c1n[nH]c3ccc(cc13)-c1cnn(C)c1OCCOC2 [Example 322, (17E)-8,16-dimethyl-2,8,10,11-tetrahydro-13H-3,5-ethenodipyrazolo[3′,4′:10,11;4″,3″:14,15] [1,4]dioxacyclopentadecino[6,7-c][1,2]thiazole]
9 | 7.70 | 8.92 | 6.00 | 8.91 | 8.88 | – | – | – | – | – | – | – | Cn1nc(C#N)c2c1COCCOc1c(cnn1C)-c1ccc3[nH]nc(c3c1)/C=C/2 [Example 302, (17E)-8,14-dimethyl-2,8,10,11,13,14-hexahydro-3,5-etheno[1,4]dioxacyclopentadecino[10,11-c:15,14-c′:6,7-c″]tripyrazole-16-carbonitrile]
10 | 8.24 | 9.48 | 7.44 | 9.06 | 9.65 | – | – | – | – | – | – | – | CCc1nn(C)c2c1/C=C/c1n[nH]c3ccc(cc13)-c1cnn(C)c1OCCOC2 [Example 300, (17E)-16-ethyl-8,14-dimethyl-2,8,10,11,13,14-hexahydro-3,5-etheno[1,4]dioxacyclopentadecino[10,11-c:15,14-c′:6,7-c″]tripyrazole]
11 | 8.16 | – | – | – | – | 6.23 | 5.98 | 6.99 | 7.00 | 6.87 | 7.51 | – | Cc1nn(C)c2c1/C=C/c1n[nH]c3ccc(cc13)-c1cnn(C)c1O[C@@H](C)CCO2 [Ex. 35, (10S,17E)-8,10,14,16-tetramethyl-2,11,12,14-tetrahydro-8H,10H-3,5-etheno[1,5]dioxacyclopentadecino[10,11-c:15,14-c′:6,7-c″ ]tripyrazole]
12 | 7.49 | 9.49 | 7.16 | 9.70 | 9.81 | – | – | – | – | – | – | – | Cc1onc2c1/C=C/c1n[nH]c3ccc(cc13)-c1cnn(C)c1OCCOC2 [Example 320, (17E)-8,16-dimethyl-2,8,10,11-tetrahydro-13H-3,5-ethenodipyrazolo[3′,4′:10,11;4″,3″:14,15] [1,4]dioxacyclopentadecino[6,7-c][1,2]oxazole]
13 | 8.30 | – | – | – | – | 6.12 | 5.83 | 6.66 | 6.37 | 6.74 | 7.22 | 7.61 | CCc1nn(C)c2c1/C=C/c1n[nH]c3ccc(cc13)-c1cnn(C)c1O[C@@H](C)COC2 [Example 319, (10S,17E)-16-ethyl-8,10,14-trimethyl-2,8,10,11,13,14-hexahydro-3,5-etheno[1,4]dioxacyclopentadecino[10,11-c:15,14-c′:6,7-c″]tripyrazole]
14 | 8.87 | – | – | – | – | 6.80 | 7.02 | 8.42 | 8.29 | 8.35 | 9.27 | 8.73 | Cc1nn(CCO)c2c1/C=C/c1n[nH]c3ccc(cc13)-c1cnn(C)c1OCCCO2 [Ex. 22, 2-[(17E)-8,16-dimethyl-2,8,11,12-tetrahydro-10H,14H-3,5-etheno[1,5]dioxacyclopentadecino[10,11-c:15,14-c′:6,7-c″]tripyrazol-14-yl]ethan-1-ol]
15 | 7.68 | 8.87 | 6.38 | 8.72 | 9.07 | – | – | – | – | – | – | – | Cc1noc2c1/C=C/c1n[nH]c3ccc(cc13)-c1cnn(C)c1OCCOC2 [Example 321, (17E)-8,16-dimethyl-2,10,11,13-tetrahydro-8H-3,5-ethenodipyrazolo[3′,4′:10,11;4″,3″:14,15] [1,4]dioxacyclopentadecino[7,6-d][1,2]oxazole]
16 | 8.68 | – | – | – | – | 6.05 | 6.42 | 7.35 | – | 6.98 | 7.61 | – | Cc1nn(C)c2c1/C=C/c1n[nH]c3ccc(cc13)-c1cnn(C)c1OCCCO2 [Ex. 8, (17E)-8,14,16-trimethyl-2,11,12,14-tetrahydro-8H,10H-3,5-etheno[1,5]dioxacyclopentadecino[10,11-c:15,14-c′:6,7-c″]tripyrazole]
